“Also recorded” adds a separate entry of the source. Where two headings read alike, the source gives them in different places.
Assays:
[1] = tested on: squamous cell carcinoma (KLN) tumor; experiment: Squamous cell carcinoma (KLN) tumor mass in mice; format: in vivo; conditions: DBA/2J mice, oral, 320 mg/kg/day, six weeks
[2] = tested on: A549 lung cancer cells; experiment: SRB growth inhibition of A549 lung cancer cells; format: cell-based, human; conditions: for IC50: Homo sapiens
[3] = tested on: intracellular Ca^2+ stores; experiment: Ca2+ release from intracellular stores (FURA-2AM loaded cells); format: cell-based; set-up: key to Ca^2+ (Ca^2+ release from intracellular stores): a “+” denotes release; a “+/−” denotes inconclusive
Procedure, shortened: (§1)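 Ca2+ release scored in FURA-2AM loaded cells as "+" (release) or "+/−" (inconclusive); some compounds also tested with ER-targeted FRET Ca2+ sensors. Ca2+-depleting compounds were then tested for eIF2α phosphorylation by Western blot with phospho-specific anti-eIF2α antibody.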

[4] = tested on: endoplasmic reticulum (ER) Ca^2+; experiment: Depletion of endoplasmic reticulum Ca2+ (ER-targeted cameleon proteins, FRET); format: cell-based; conditions: ER-targeted Ca^2+-sensitive proteins
Procedure: FIGS. 2A-2B depict compound 1181 activity. […] These proteins emit light and the Ca^2+ content is measured by fluorescent resonance energy transfer (FRET).
Without intending to be bound by theory, the mechanism of action of translation initiation inhibitors is set forth in FIG. 1, and includes the depletion (complete or partial depletion) of intracellular calcium (Ca^2+) stores and phosphorylation of eIF2α. Compounds synthesized using the approaches described herein were screened for their ability to partially deplete intracellular Ca^2+ stores using FURA-2AM loaded cells (Benzaquen et al. (1995) Nature Medicine, 1:534, incorporated herein by reference in its entirety for all purposes). A limited subset of compounds were further screened for their ability to deplete endoplasmic reticulum (ER) Ca^2+. The Ca^2+ content of the ER was monitored using ER-targeted, Ca^2+ sensitive, recombinant proteins. These recombinant proteins emitted light by fluorescent resonance energy transfer (FRET) as a function of the Ca^2+ content of the medium. […] Compounds that depleted Ca^2+ were further evaluated for their ability to phosphorylate eIF2α. eIF2α phosphorylation was measured by Western blot analysis using the phospho-specific anti-eIF2α antibody, as previously described (Aktas et al. (1998) Proc. Natl. Acad. Sci. USA, 95:8280, incorporated herein by reference in its entirety for all purposes).

[5] = tested on: ternary complex in transgenic KLN cells; experiment: Ternary complex assay; format: cell-based
Procedure: FIGS. 3A-3C depict compound 1181 activity. (A) depicts the drug induced phosphorylation of eIF2α protein in control (lane 1), positive control (lane 2) and 1181 (lane 3) measured using Western blot analysis.
(§2) Ternary complex assay was 8-fold over DMSO at 20 μM, and cell growth was inhibited at <1 μM. The plasma levels for this in mice were estimated using liquid chromatography and mass spectrometry (LC-MS). Compound 1430 was orally administered at 160 mg/kg, 240 mg/kg, and 320 mg/kg to DBA/2J mice and the plasma concentration was measured at three time points, one hour, three hours, and six hours, and is set forth in Table 15. The plasma was isolated from the mice by heart-lung puncture and the samples were processed and analyzed by LC-MS. The concentrations at each time and dose are in nmoles/mL of plasma (n.d.=not detected; X=not determined).

[6] = tested on: eIF2α; experiment: eIF2α phosphorylation measured by Western blot; format: cell-based; conditions: for eIF2α-P (phosphorylation of eIF2α measured by Western blot): unit or reference not given
Procedure, shortened: as §1

[7] = Plasma levels after oral administration (LC-MS); format: in vivo; conditions: mouse, DBA/2J mice
Procedure: as §2

[8] = A549 lung cancer cells, unit inferred, read-out: SRB (IC50 for growth inhibition of A549 lung cancer cells)

| IC50 [2, 8] | IC50 ([2]; A549, read-out: cell growth was inhibited at) | concentration at 1 h ([7]; oral 160 mg/kg) | concentration at 3 h ([7]; oral 160 mg/kg) | concentration at 1 h ([7]; oral 240 mg/kg) | concentration at 3 h ([7]; oral 240 mg/kg) | concentration at 1 h ([7]; oral 320 mg/kg) | concentration at 3 h ([7]; oral 320 mg/kg) | concentration at 6 h ([7]; oral 320 mg/kg, 6 hours) | SMILES | squamous cell carcinoma (KLN) tumor mass [1] | growth inhibition of cancer cells (in words) ([2]; A549) | Ca^2+ (Ca^2+ release from intracellular stores) [3] | Ca^2+ release / depletion of intracellular Ca^2+ (in words) [3] | depletion of ER Ca^2+ (in words) [4] | depletion of ternary complex (in words) ([5]; transgenic KLN cells) | eIF2α phosphorylation (in words) [6] | eIF2α-P (phosphorylation of eIF2α measured by Western blot) [6] | Ternary complex assay over DMSO ([5]; at 20 μM, over DMSO) | increase in eIF2α phosphorylation over DMSO ([6]; at 5 μM, over DMSO) |
| --- | --- | --- | --- | --- | --- | --- | --- | --- | --- | --- | --- | --- | --- | --- | --- | --- | --- | --- | --- |
| 3 µM |  |  |  |  |  |  |  |  | CC(C)(C)c1ccc(O)c(C2(c3ccccc3)C(=O)Nc3ccccc32)c1 (stereo not shown) [Compound 1181, 3-(5-tert-butyl-2-hydroxy-phenyl)-3-phenyl-1,3-dihydro-indol-2-one] | decreased squamous cell carcinoma tumor mass in mice; also recorded: decrease in squamous cell carcinoma (KLN) tumor mass | inhibited growth of a cancer cell line (A549) | + | calcium (Ca^2+) release in a dose dependent manner | depleted ER-Ca^2+; also recorded: depletion of endoplasmic reticulum (ER) Ca^2+ | depletion of ternary complex | phosphorylated eIF2α | 5 |  |  |
| 0.9 µM | < 1 µM | 5.7 µM | 3.8 µM | 6.8 µM | 4 µM | 14 µM | 3.8 µM | 2.8 µM | Cc1cc(C2(c3ccccc3)C(=O)Nc3ccccc32)c(NS(=O)(=O)c2ccc(C(C)(C)C)cc2)cc1O (stereo not shown) [Compound 1430, 4-tert-butyl-N-[5-hydroxy-4-methyl-2-(2-oxo-3-phenyl-2,3-dihydro-1H-indol-3-yl)-phenyl]-benzenesulfonamide] |  |  | + |  |  |  |  | 4.8 | 8 fold | 5 fold |

Source: patent US8044089B2, “3-3-di-substituted-oxindoles as inhibitors of translation initiation” (President and Fellows of Harvard College, priority 2004, dated 2011)
